In patent US11649235B2, “Pan-tropic entry inhibitors” (Emory University, priority 2018, dated 2023):
Read-outs that look alike come from different tables or passages of the source.

Key:
HIV-1IIIB = experiment: HIV MAGI assay, HIV-1IIIB; assay type: cell-based; conditions: for IC50 / IC90: Table 3
Procedure: (§1) HIV-1 and MAGI Tropism assays can be used to establish activity/cytotoxicity and synergy studies and ADME profiles of compounds are evaluated using in vitro assays such as CYP2D6/3A4 assays and metabolic stability in human and mouse liver microsomes (See Tables 2 and 3).

HIV-1BaL = experiment: HIV MAGI assay, HIV-1BaL; assay type: cell-based; conditions: for IC50 / IC90: Table 3
Procedure: as §1

MAGI [1] = experiment: Cytotoxicity in MAGI HIV-1IIIB assay; assay type: cell-based
Procedure: as §1

MAGI [2] = experiment: Cytotoxicity in MAGI HIV-1BaL assay; assay type: cell-based
Procedure: as §1

CYP2D6 = CYP2D6 (Homo sapiens (Human), UniProt P10635); experiment: Recombinant CYP inhibition assay (fluorometric), CYP2D6; assay type: in vitro ADME
Chain of CYP2D6 (P10635 whole entry): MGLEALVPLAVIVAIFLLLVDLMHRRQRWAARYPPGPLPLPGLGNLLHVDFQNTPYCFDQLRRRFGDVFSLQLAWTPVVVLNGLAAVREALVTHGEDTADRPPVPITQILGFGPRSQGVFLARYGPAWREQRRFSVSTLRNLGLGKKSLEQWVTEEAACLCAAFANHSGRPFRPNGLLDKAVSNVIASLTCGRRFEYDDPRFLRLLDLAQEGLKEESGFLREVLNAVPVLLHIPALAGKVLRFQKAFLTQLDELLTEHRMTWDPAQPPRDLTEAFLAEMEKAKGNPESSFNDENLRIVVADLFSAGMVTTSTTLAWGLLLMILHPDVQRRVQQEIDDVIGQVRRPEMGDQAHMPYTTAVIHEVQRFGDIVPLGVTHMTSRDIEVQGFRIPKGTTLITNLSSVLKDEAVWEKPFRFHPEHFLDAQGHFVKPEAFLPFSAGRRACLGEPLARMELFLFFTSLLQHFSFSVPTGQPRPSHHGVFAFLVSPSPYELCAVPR
From the text: (§2) Recombinant CYP Inhibition Assay: In a drug discovery program, a rapid screening for cyctochrome P450 (CYP450) inhibitors is a part of the existing standard for avoiding the development of drugs likely to give clinical pharmacokinetic drug-drug interactions and associated toxicities. A microtiter plate-based, direct fluorometric assay for the activities of the principal human drug-metabolizing enzymes, CYP2D6 and CYP3A4 can be used and these assays are rapid and compatible with existing high-throughput assay instrumentation.
(§3) Fluorometric Enzyme Inhibition Assays: Test compounds were dissolved in 100% organic solvent (CH3CN or DMSO) to make 30 mM stock solutions. […] A 100 mM potassium phosphate buffer was prepared and adjusted to pH 7.4. The 30 mM stock solution of test and control compounds (1 mM) were further diluted in phosphate buffer (100 mM, pH 7.4) to ensure the final organic solvent content was <0.2% in the reaction. In a separate falcon tube, a 2× enzyme/substrate (E/S) solution was prepared in phosphate buffer. The final concentration of CYP2D6 (Corning) and AMMC was 10 nM and 4 μM, and CYP3A4 (Corning) and BFC was 20 nM and 40 μM, respectively. In a separate falcon tube, a 2× NADPH regenerating system (NRS) was prepared in phosphate buffer. The final concentration for each component in the assay was as follows: • CYP2D6 assay=0.008 mM NADPH, 3.3 mM glucose 6-phosphate, 0.4 U of glucose-6-phosphate dehydrogenase/mL • CYP3A4 assay=2.45 mM NADPH, 24.7 mM glucose 6-phosphate, 1.25 U of glucose-6-phosphate dehydrogenase/mL
(§4) Both enzymatic assays were conducted in a 96-well microtiter plate (Black, Corning Costar) with a final volume of 100 μL. Preparation of the plate began with the addition of 74 μL of the E/S in the first well, and 50 μL to all subsequent wells (from 2-11). The test compounds (1 μL) were dissolved in the first well to give the first row a final volume of 75 μL. A 1:3 serial dilution of the test compound was conducted by removing 25 μL from the first well and diluting it with the second and so forth until the tenth row. Final concentrations yielded a range from 300 μM-0.01 μM. Well 11 contained no enzyme, and well 12 contained no inhibitor. Both were used as controls for background fluorescence. The plate was incubated for 10 min at 37° C. for CYP2D6, and 30 mins for CYP3A4. After incubation, the reaction was initiated by the addition of 50 μL of the 2× NRS to each well.
(§5) Immediately (within 1 min) the fluorescence was measured using a microplate reader (KC4, BioTek). CYP2D6 was monitored at Ex/Em=410/460 nm, and CYP3A4 monitored at Ex/Em=410/538 nm in kinetic mode that scanned every 5 min for 60 mins. Data was exported and corrected for background noise by subtracting the blank from the mean value of all other columns. […]

CYP3A4 = CYP3A4 (Homo sapiens (Human), UniProt P08684); experiment: Recombinant CYP inhibition assay (fluorometric), CYP3A4; assay type: in vitro ADME
Chain of CYP3A4 (P08684 whole entry): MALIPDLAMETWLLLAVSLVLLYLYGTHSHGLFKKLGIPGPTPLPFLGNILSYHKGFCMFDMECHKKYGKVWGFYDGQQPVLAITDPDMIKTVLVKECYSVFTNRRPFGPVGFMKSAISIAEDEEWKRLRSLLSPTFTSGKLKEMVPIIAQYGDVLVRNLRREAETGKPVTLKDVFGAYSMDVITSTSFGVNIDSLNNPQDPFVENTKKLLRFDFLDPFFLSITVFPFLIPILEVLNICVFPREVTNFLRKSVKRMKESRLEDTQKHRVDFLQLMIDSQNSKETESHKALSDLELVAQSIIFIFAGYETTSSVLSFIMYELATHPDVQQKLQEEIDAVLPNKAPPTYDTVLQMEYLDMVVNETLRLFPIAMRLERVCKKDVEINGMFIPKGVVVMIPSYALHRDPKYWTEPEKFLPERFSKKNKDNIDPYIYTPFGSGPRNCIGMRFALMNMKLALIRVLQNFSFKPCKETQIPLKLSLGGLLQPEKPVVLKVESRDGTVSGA
From the text: as §2, §3, §4, §5

[3] = both, 3 μM, pH 7.4
Procedure: Human Liver Microsomes: Pooled mixed gender human liver microsomes at a concentration of 20 mg/mL were purchased from XenoTech (Kansas City, Kans.). The vials of microsomes were stored at −80° C. and thawed on ice before each experiment. The microsomes were diluted to 1 mg/mL with 100 mM potassium phosphate buffer (pH 7.4).
Experimental Conditions: Test compounds were weighed and dissolved in 100% acetonitrile to make 2 mM stock solutions. […] The 2 mM stock solution of test and control compounds were further diluted in sodium phosphate buffer (100 mM, pH 7.4) to 50 μM to ensure the acetonitrile content was <0.2%.
The liver microsome assay was prepared in a 1.5 mL Eppendorf tube (Fisher Scientific) with a final volume of 1100 μL. Each reaction contained sodium phosphate buffer, liver microsomes (1 mg/mL), and test compound resulting in a final concentration of 3 μM. Following a 5 min pre-incubation of drug and microsomes in a 37° C. shaking incubator, the reaction was initiated with NADPH (110 μL). Aliquots (100 μL) were removed in duplicate at 0, 5, 10, 15, and […] and quenched in cold acetonitrile (200 μL). The aliquots were centrifuged at 12,000 g for 5 min and the supernatant removed and placed in an LCMS vial. […] A no NADPH negative control with test and control compound was conducted in singlet (150 μL) at the longest time point. Controls were processed and analyzed like test compounds.
An Agilent Technologies LCMS system consisting of an Agilent 6120 quadrupole mass spectrometer equipped with an Agilent 1200 binary pump, degasser, and auto sampler (Santa Clara, Calif.). The analytical column used for analysis was an XDB-Eclipse Plus C18 column (4.6 mm×150 mm column; Agilent Technologies). The mobile phase for the HPLC was 50 mM ammonium formate buffer, pH 3.5 (A) and acetonitrile (B). The samples were analyzed using the following 8-minute method: A linear gradient from 10% B to 95% B over for 5 minutes, with a 3 min hold at 95%. An equilibration at 10% B for 5 min was conducted after each run. Sample injection volume was 10 μL and the flow rate was 1.0 mL/min. Single ion monitoring of the mass in positive mode was conducted the molecular weight for each compound. Each time point was assessed on the LCMS and the area, based on the extracted ion, was manually integrated.
Calculations: The depletion of the compound was monitored as a function of time, and the area under the curve was manually integrated. The relative percent remaining was calculated using: Relative % remaining=AreaTime/AreaTime=0*100. The relative percentages for the duplicate runs were averaged and the standard deviations were calculated. Metabolism data averaged duplicates.

[4] = Mouse liver microsomes assay; assay type: in vitro ADME; conditions: for Relative % remaining, mouse liver microsomes: 3 μM compound, 1 mg/mL microsomes
Procedure: Controls were processed and analyzed like test compounds. […] The relative percent remaining was calculated using: Relative % remaining=[…]=0*100. […] Metabolism data averaged duplicates.

[5] = Human immunodeficiency virus 1, MAGI

IC50 (HIV-1IIIB; [5])	IC90 (HIV-1IIIB; [5])	IC50 (HIV-1BaL; [5])	IC90 (HIV-1BaL; [5])	Compound	MAGI HIV-1IIIB TC50 (MAGI [1]; Table 3)	MAGI HIV-1BaL TC90 (MAGI [2]; Table 3, head prints TC90)	other results
3.49 µM	52.7 µM	0.95 µM	22.7 µM	NCCCCN(C[C@H]1CN(CC[C@H](NC(=O)C2CCC(F)(F)CC2)c2ccccc2)CCN1Cc1ccncc1)[C@H]1CCCc2cccnc21 [Compound 81, N—((S)-3-((R)-3-(((4-aminobutyl)((S)-5,6,7,8-tetrahydroquinolin-8-yl)amino)methyl)-4-(pyridin-4-ylmethyl)piperazin-1-yl)-1-phenylpropyl)-4,4-difluorocyclohexane-1-carboxamide]	>100 µM	>100 µM	
0.002 µM	0.009 µM	1.54 µM	23 µM	NCCCCN(C[C@H]1CN(CC[C@H](NC(=O)C2CCC(F)(F)CC2)c2ccccc2)CCN1Cc1cnc[nH]1)[C@H]1CCCc2cccnc21 [Compound 77, N—((S)-3-((R)-4-((1H-imidazol-5-yl)methyl)-3-(((4-aminobutyl)((S)-5,6,7,8-tetrahydroquinolin-8-yl)amino)methyl)piperazin-1-yl)-1-phenylpropyl)-4,4-difluorocyclohexane-1-carboxamide]	>100 µM	>100 µM	
6.61 µM	68.5 µM	2.51 µM	97.1 µM	NCCCCN(C[C@H]1CN(CC[C@H](NC(=O)C2CCC(F)(F)CC2)c2ccccc2)CCN1CC1COC1)[C@H]1CCCc2cccnc21 [Compound 75, N—((S)-3-((R)-3-(((4-aminobutyl)((S)-5,6,7,8-tetrahydroquinolin-8-yl)amino)methyl)-4-(oxetan-3-ylmethyl)piperazin-1-yl)-1-phenylpropyl)-4,4-difluorocyclohexane-1-carboxamide]	>100 µM	>100 µM	
2.58 µM	36.5 µM	0.66 µM	7.35 µM	Cn1cncc1CN1CCN(CC[C@H](NC(=O)C2CCC(F)(F)CC2)c2ccccc2)C[C@@H]1CN(CCCCN)[C@H]1CCCc2cccnc21 [Compound 79, N—((S)-3-((R)-3-(((4-aminobutyl)((S)-5,6,7,8-tetrahydroquinolin-8-yl)amino)methyl)-4-((1-methyl-1H-imidazol-5-yl)methyl)piperazin-1-yl)-1-phenylpropyl)-4,4-difluorocyclohexane-1-carboxamide]	>100 µM	>100 µM	

The remaining lines, values behind:

Compound	IC50 (HIV-1IIIB; [5])	IC90 (HIV-1IIIB; [5])	IC50 (HIV-1BaL; [5])	IC90 (HIV-1BaL; [5])	MAGI HIV-1IIIB TC50 (MAGI [1]; Table 3)	MAGI HIV-1BaL TC90 (MAGI [2]; Table 3, head prints TC90)	other results
NCCCCN(C[C@H]1CN(CC[C@H](NC(=O)C2CCC(F)(F)CC2)c2ccccc2)CCN1Cc1cnco1)[C@H]1CCCc2cccnc21 [Compound 67]	3.19 µM	44.6 µM	2.33 µM	36.7 µM	>100 µM	>100 µM	
NCCCCN(C[C@H]1CN(CC[C@H](NC(=O)C2CCC(F)(F)CC2)c2ccccc2)CCN1Cc1cncs1)[C@H]1CCCc2cccnc21 [Compound 66]	12.4 µM	65.8 µM	0.33 µM	4.38 µM	>100 µM	>100 µM	
NCCCCN(CC1NC[C@@H]2CC[C@H]1N2CC[C@H](NC(=O)C1CCC(F)(F)CC1)c1ccccc1)[C@H]1CCCc2cccnc21 (single isomer, unassigned) [LRf isomer 95]							IC50 (HIV-1IIIB): > 10 µM; IC90 (HIV-1IIIB): > 10 µM; IC50 (HIV-1BaL): 9.36 µM; IC90 (HIV-1BaL): > 100 µM; MAGI HIV-1IIIB TC50 (MAGI [1]; human): >10.0 µM; MAGI HIV-1BaL TC90 (MAGI [2]; human): >100 µM
CN1CCN(CC[C@H](NC(=O)C2CCC(F)(F)CC2)c2ccccc2)C[C@@H]1CN(CCCCN)[C@H]1CCCc2cccnc21 [Compound 68]	10.2 µM	70.2 µM	4.16 µM	66.8 µM	>100 µM	>100 µM	
NCCCCN(Cc1nc2ccccc2[nH]1)[C@H]1CCCc2cccnc21 [AMD11070, reference compound]							inhibition at 60 min, 1 µM (CYP2D6; human, recombinant CYP2D6, pH 7.4, probe AMMC (4 μM), at 1 μM, read-out: Inhibition of P450 2D6): 100%; Inhibition of P450 3A4 (CYP3A4; at 1 μM): 35%
NCCCCN(CC1NC[C@@H]2CC[C@H]1N2CC[C@H](NC(=O)C1CCC(F)(F)CC1)c1ccccc1)[C@H]1CCCc2cccnc21 (single isomer, unassigned) [URf isomer 95]							IC50 (HIV-1IIIB): 0.17 µM; IC90 (HIV-1IIIB): 0.9 µM; IC50 (HIV-1BaL): 0.82 µM; IC90 (HIV-1BaL): 8.96 µM; MAGI HIV-1IIIB TC50 (MAGI [1]; human): >10.0 µM; MAGI HIV-1BaL TC90 (MAGI [2]; human): >100 µM
NCCCCN(C[C@@H]1CN(CC[C@H](NC(=O)C2CCC(F)(F)CC2)c2ccccc2)CCN1)[C@H]1CCCc2cccnc21 [Compound 1]							EC50 (HIV-1IIIB; Human immunodeficiency virus 1, MAGI, Table 1, read-out: HIV MAGI EC50 HIVIIIB): 0.22 µM; EC50 (HIV-1BaL; Human immunodeficiency virus 1, MAGI, Table 1, read-out: HIV MAGI EC50 HIVBa-L): 2.6 µM; IC50 (CYP2D6; Table 1): > 20 µM; IC50 (CYP3A4; Table 1): > 20 µM; Relative % remaining, human liver microsomes ([3]; 10 min): 58 ± 4.9%; Relative % remaining, human liver microsomes ([3]; 0.5 h): 25 ± 0.1%; HLM ([3]; human, microsomes, 10 min): 58% @ 10 min; Relative % remaining, mouse liver microsomes ([4]; 10 min): 116 ± 3.1%; Relative % remaining, mouse liver microsomes ([4]; 30 min): 93 ± 8.9%; MLM ([4]; @ 10 min, Table 1): 100% @ 10 min
